Assay results taken from ChEMBL document CHEMBL4706632, “Development of Potential Antitumor Agents from the Scaffolds of Plant-Derived Terpenoid Lactones” (J Med Chem, 2020).

Assays:
MDA-MB-231 [1] = assay: Cytotoxicity against human MDA-MB-231 cells incubated for 48 hrs by MTT assay; assay type: functional, cell-based; conditions: MDA-MB-231, 48 h
AGS = assay: Cytotoxicity against human AGS cells incubated for 48 hrs by MTT assay; assay type: functional, cell-based
HeLa = assay: Cytotoxicity against human HeLa cells incubated for 48 hrs by MTT assay; assay type: functional, cell-based
HepG2 = assay: Cytotoxicity against human HepG2 cells incubated for 48 hrs by MTT assay; assay type: functional, cell-based; conditions: HepG2, 48 h
PANC-1 = assay: Cytotoxicity against human Panc-1 cells incubated for 48 hrs by MTT assay; assay type: functional, cell-based; conditions: PANC-1, 48 h
A549 = assay: Antiproliferative activity against human A549 cells incubated for 72 hrs by Sulforhodamine B assay; assay type: functional, cell-based; conditions: A549, 72 h
A-431 = assay: Antiproliferative activity against human A-431 cells incubated for 72 hrs by Sulforhodamine B assay; assay type: functional, cell-based; conditions: A-431, 72 h
[2] = Antiproliferative activity against human U87-MG cells incubated for 72 hrs by Sulforhodamine B assay; assay type: functional, cell-based; conditions: U-87 MG
HCT-116 [3] = assay: Cytotoxicity against human HCT116 cells incubated for 72 hrs by ATPlite assay; assay type: functional, cell-based; conditions: HCT-116, 72 h
WM 266-4 = assay: Cytotoxicity against human WM 266-4 cells incubated for 72 hrs by ATPlite assay; assay type: functional, cell-based; conditions: WM 266-4, 72 h
HCT-116 [4] = assay: Antiproliferative activity against human HCT-116 cells incubated for 72 hrs by WST-1 assay; assay type: functional, cell-based; conditions: HCT-116, 72 h
MCF7 [5] = assay: Cytotoxicity against human MCF-7 cells incubated for 72 hrs by MTT assay; assay type: functional, cell-based; conditions: MCF7, 72 h
MDA-MB-231 [6] = assay: Cytotoxicity against human MDA-MB-231 cells incubated for 72 hrs by MTT assay; assay type: functional, cell-based; conditions: MDA-MB-231, 72 h
MCF7 [7] = assay: Antiproliferative activity against human MCF7 cells incubated for 48 hrs by [3H]-thymidine incorporation assay; assay type: functional, cell-based
MDA-MB-435 = assay: Antiproliferative activity against human MDA-MB-435 cells incubated for 48 hrs by [3H]-thymidine incorporation assay; assay type: functional, cell-based
[8] = Inhibition of PAFR in New Zealand rabbit platelets assessed as reduction in PAF-induced platelet aggregation measured within 5 mins by aggregometry analysis; assay type: tissue-based; conditions: Oryctolagus cuniculus
P388 = assay: Antiproliferative activity against mouse P388 cells; assay type: functional, cell-based

| Compound | IC50 (MDA-MB-231 [1]) [nM] | IC50 (AGS) [nM] | IC50 (HeLa) [nM] | IC50 (HepG2) [nM] | IC50 (PANC-1) [nM] | other results |
| --- | --- | --- | --- | --- | --- | --- |
| CC(C)[C@H]1OC(=O)C=C2[C@@]13O[C@@H]3[C@H]1OC(=O)[C@@]3(C)C[C@@H](O)C[C@@]2(C)[C@@H]13 | > 40000 | 1400 | 600 | 3100 | > 40000 | IC50 (A549): 570 nM; IC50 (A-431): 210 nM; IC50 [2]: 430 nM |
| C[C@@H](O)[C@H]1OC(=O)C=C2[C@]3(C)[C@H]4[C@H](OC(=O)[C@@]4(C)[C@@H](O)[C@H]4O[C@H]43)[C@H]3O[C@@]231 | 3000 | 1300 | 1800 | 11000 | 16000 | – |
| C[C@@]12C3=CC(=O)O[C@H]([C@H](O)CO)[C@]34O[C@@H]4[C@H]3OC(=O)[C@](C)([C@H]31)[C@@H](O)[C@H]1O[C@H]12 | > 40000 | > 40000 | > 40000 | > 40000 | > 40000 | – |
| C/C(C=O)=C\[C@H]1C[C@@H]([C@@H]2CC[C@]34C[C@]23C=C[C@@H]2[C@@]3(C)CC=C5C[C@@H](c6ccccc6)OC[C@]5(C)[C@@H]3C[C@@H](O)[C@]24C)C(=O)O1 | – | – | – | – | – | IC50 (HCT-116 [3]): 92 nM; IC50 (WM 266-4): 1500 nM |
| COC(=O)[C@@]12OC[C@]34[C@H]([C@@H](O)[C@@H]1O)[C@@]1(C)CC(=O)C(O)=C(C)[C@@H]1C[C@H]3OC(=O)[C@H](OC(=O)/C=C(\C)C(C)(C)OC(C)=O)[C@@H]24 | – | – | – | – | – | IC50 (HCT-116 [4]): 50 nM; IC50 (MCF7 [5]): 63 nM; IC50 (MDA-MB-231 [6]): 88 nM |
| CC(=O)O[C@H]1CC(=O)OC(C)(C)[C@@H]2CC(=O)[C@]3(C)[C@H](CC[C@@]4(C)[C@H](c5ccoc5)OC(=O)[C@H]5O[C@]543)[C@@]12C | – | – | – | – | – | IC50 (MCF7 [7]): 97 nM; IC50 (MDA-MB-435): 780 nM |
| CC(C)[C@H]1OC(=O)C=C2C1=C[C@H]1OC(=O)[C@@]3(C)C[C@@H](O)C[C@@]2(C)[C@@H]13 | 1100 | 370 | 900 | 3700 | 3100 | – |
| Cc1ccccc1Cn1cc(CO[C@H]2C(=O)O[C@H]3O[C@]45C(=O)O[C@@H]6C[C@@H](C(C)(C)C)[C@@]32[C@@]64[C@@H](O)[C@@H]2OC(=O)[C@@H](C)[C@@]25O)nn1 | – | – | – | – | – | IC50 [8]: 5.7 nM |
| CC(O)(CO)[C@H]1C[C@H](O)[C@@H]([C@@H]2CC=C3[C@]4(C)[C@H](O)C[C@@H]5[C@](C)(CC=C6C[C@@H](Cc7ccccc7)OC[C@@]65C)[C@H]4CC[C@]32C)[C@@H](O)O1 (stereo partly drawn) | – | – | – | – | – | IC50 (HCT-116 [3]): 4200 nM; IC50 (WM 266-4): 31000 nM |
| CC1(C)O[C@H]2CC(=O)OC[C@@]23[C@H]1CC(=O)[C@@]1(C)C2=CC(=O)O[C@@H](c4ccoc4)[C@]2(C)CC[C@@H]13 | – | – | – | – | – | IC50 (MCF7 [7]): 5500 nM; IC50 (MDA-MB-435): 1700 nM |
| CC(C)[C@H]1OC(=O)C=C2C1=C[C@H]1OC(=O)[C@@]3(C)CCC[C@@]2(C)[C@@H]13 [NAGILACTONE F] | 1000 | 500 | 720 | 1300 | 19000 | IC50 (P388): 280 nM |
| C=C[C@H]1OC(=O)C=C2C1=C[C@H]1OC(=O)[C@@]3(C)CCC[C@@]2(C)[C@@H]13 | – | – | – | – | – | IC50 (P388): 160 nM |
| CC(C)c1oc(=O)cc2c1[C@@H](O)[C@H]1OC(=O)[C@@]3(C)[C@@H](O)[C@H]4O[C@H]4[C@@]2(C)[C@@H]13 [NAGILACTONE C] | 5000 | 2300 | 3300 | 14000 | > 40000 | – |
| CC(=O)O[C@@]1(C)COC2(C1)OC(=O)[C@H]([C@@H]1CC[C@]34C[C@]13C=C[C@@H]1[C@@]3(C)CC=C5C[C@@H](Cc6ccccc6)OC[C@]5(C)[C@@H]3[C@@H](O)C(=O)[C@]14C)[C@H]2O (stereo partly drawn) | – | – | – | – | – | IC50 (HCT-116 [3]): 9.9 nM; IC50 (WM 266-4): 78 nM |
| C=C1[C@@H](O)C[C@H]2C(C)(C)C[C@H](Cl)C[C@]2(C)[C@H]1C[C@H](O)[C@H]1CC(=O)NC1=O [CHLOROLISSOCLIMIDE] | – | – | – | – | – | IC50 (P388): 4 nM |
| Cc1ccccc1Cn1cc(CO[C@H]2C(=O)O[C@H]3O[C@]45C(=O)O[C@@H]6C[C@@H](C(C)(C)C)[C@@]32[C@@]64C[C@@H]2OC(=O)[C@@H](C)[C@@]25O)nn1 | – | – | – | – | – | IC50 [8]: 71 nM |
| C[C@]1(O)COC2(C[C@@H]([C@@H]3CC[C@]45C[C@]34C=C[C@@H]3[C@@]4(C)CC=C6C[C@@H](Cc7ccccc7)OC[C@]6(C)[C@@H]4C[C@@H](O)[C@]35C)C(=O)O2)C1 (stereo partly drawn) | – | – | – | – | – | IC50 (HCT-116 [3]): 450 nM; IC50 (WM 266-4): 1300 nM |
